Test results as given in US20250000903A1, “EXPANSION PROCESSES AND AGENTS FOR TUMOR INFILTRATING LYMPHOCYTES” (Iovance Biotherapeutics, Inc., priority 2021, published 2025).

How the values were obtained:
Format in all cases: cell-based, human
[1] = tested on: tumor-infiltrating lymphocytes (TIL); assay: Functional characteristics of final TIL product expanded with AKTi; conditions: AKTi treatment during ex vivo expansion
Method: (§1) Patient tumors from different indications were received, fragmented, and subjected to an expansion protocol for TIL manufacturing. Different doses (0.3 μM and 1 μM) of the pan-AKT inhibitor (AKTi) ipatasertib were added to the culture during ex vivo expansion. The expansion potential, as well as the phenotypic and functional characteristics of TIL were evaluated on the final TIL product.

[2] = tested on: tumor-infiltrating lymphocytes (TIL); assay: Phenotypic characteristics of final TIL product expanded with AKTi; conditions: AKTi 1 μM
Method: as §1

[3] = tested on: tumor-infiltrating lymphocytes (TIL); assay: TIL ex vivo expansion with AKTi ipatasertib: expansion and viability; conditions: AKTi 1 μM during ex vivo expansion
Method: as §1

SMILES: CC(C)NC[C@@H](C(=O)N1CCN(c2ncnc3c2[C@H](C)C[C@H]3O)CC1)c1ccc(Cl)cc1 [AKTi, ipatasertib]
- cytotoxicity [1]: increased
- frequency of IFNγ+TNFα+CD8+ T cells [1]: increase
- expression of CD38 and the transcription factors T-bet and Tox ([2]; CD39-CD69- cells): reduced
- population of less differentiated CD39-CD69- cells ([2]; present even after re-stimulation): doubled
- expansion of TIL relative to control [3]: equivalent
- viability of TIL relative to control [3]: equivalent
